Data published in ChEMBL document CHEMBL6177950, “Discovery of potent and selective CDK2 inhibitors with high safety and favorable bioavailability for the treatment of cancer” (Eur J Med Chem, 2025).
Active and inactive are the calls of the source. The rule behind the calls is not given here.

Key:
[1] = Half life in Sprague-Dawley rat at 2 mg/kg, iv by LC-MS/MS analysis; type: ADME, organism-based; settings: in vivo
[2] = Acute toxicity in ICR mouse assessed as effect on heart weight at 1000 to 2500 mg/kg, po administered once for 14 days; type: organism-based; settings: in vivo, 336 h, dose 1000-2500 mg/kg, time 14 day
[3] = MRT (0 to infinity) in Sprague-Dawley rat at 2 mg/kg, iv by LC-MS/MS analysis; type: ADME, organism-based; settings: in vivo
OVCAR-3 [4] = test: Induction of apoptosis in human OVCAR-3 cells assessed as necrotic cells at 1 uM incubated for 24 hrs by Annexin V-FITC/PI staining based flow cytometry analysis (reference value: 0.87%); type: functional
OVCAR-3 [5] = test: Downregulation of proliferation-related signaling pathway gene expression in human OVCAR-3 cells by GSEA; type: functional, cell-based
OVCAR-3 [6] = test: Induction of apoptosis in human OVCAR-3 cells incubated for 24 hrs by Annexin V-FITC/PI staining based flow cytometry analysis; type: functional, cell-based; settings: dose 1-2 µM
OVCAR-3 [7] = test: Antitumor activity against human OVCAR-3 cells xenografted in nude BALB/c mouse model assessed as tumor growth inhibition at 80 mg/kg, po administered once daily for 21 days; type: functional, organism-based; settings: time 21.0 day
[8] = AUC (0 to infinity) in Sprague-Dawley rat at 20 mg/kg, po by LC-MS/MS analysis; type: ADME, organism-based; settings: in vivo
OVCAR-3 [9] = test: Induction of apoptosis in human OVCAR-3 cells assessed as viable cells at 1 uM incubated for 24 hrs by Annexin V-FITC/PI staining based flow cytometry analysis (reference value: 95.2%); type: functional; settings: read-out: Activity
CDK1/Cyclin A = CDK1/Cyclin A (Homo sapiens, UniProt P06493); test: Inhibition of CDK1/Cyclin A2 (unknown origin) pre-incubated for 10 mins followed by ATP/substrate addition and measured after 60 mins by ADP-Glo assay; type: protein-complex assay
Chain of CDK1/Cyclin A (P06493 whole entry): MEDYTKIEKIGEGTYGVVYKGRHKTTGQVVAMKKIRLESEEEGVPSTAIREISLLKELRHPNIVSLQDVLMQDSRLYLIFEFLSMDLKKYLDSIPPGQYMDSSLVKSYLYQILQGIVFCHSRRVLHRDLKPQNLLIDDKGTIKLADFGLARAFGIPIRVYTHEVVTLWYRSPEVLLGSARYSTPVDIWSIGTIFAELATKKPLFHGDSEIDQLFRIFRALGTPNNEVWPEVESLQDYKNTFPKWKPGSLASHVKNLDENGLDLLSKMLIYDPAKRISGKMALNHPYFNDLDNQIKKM
Chain of CDK1/Cyclin A (P20248 whole entry, further chain): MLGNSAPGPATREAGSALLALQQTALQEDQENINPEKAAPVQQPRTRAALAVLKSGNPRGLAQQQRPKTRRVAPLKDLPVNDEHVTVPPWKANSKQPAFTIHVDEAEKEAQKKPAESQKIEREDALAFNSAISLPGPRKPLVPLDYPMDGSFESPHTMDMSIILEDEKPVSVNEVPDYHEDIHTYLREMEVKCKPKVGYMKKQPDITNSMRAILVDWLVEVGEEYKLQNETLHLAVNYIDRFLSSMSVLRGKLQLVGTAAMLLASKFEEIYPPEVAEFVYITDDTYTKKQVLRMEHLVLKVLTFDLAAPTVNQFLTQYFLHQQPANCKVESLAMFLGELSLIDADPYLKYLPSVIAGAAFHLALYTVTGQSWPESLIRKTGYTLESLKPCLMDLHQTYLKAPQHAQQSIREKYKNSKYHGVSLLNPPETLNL

[10] = target: Cyclin-dependent kinase 4/cyclin D1 (Homo sapiens, UniProt P11802); test: Inhibition of CDK4/Cyclin D1 (unknown origin) pre-incubated for 10 mins followed by ATP/substrate addition and measured after 60 mins by ADP-Glo assay; type: protein-complex assay
Chain of Cyclin-dependent kinase 4/cyclin D1 (P11802 whole entry): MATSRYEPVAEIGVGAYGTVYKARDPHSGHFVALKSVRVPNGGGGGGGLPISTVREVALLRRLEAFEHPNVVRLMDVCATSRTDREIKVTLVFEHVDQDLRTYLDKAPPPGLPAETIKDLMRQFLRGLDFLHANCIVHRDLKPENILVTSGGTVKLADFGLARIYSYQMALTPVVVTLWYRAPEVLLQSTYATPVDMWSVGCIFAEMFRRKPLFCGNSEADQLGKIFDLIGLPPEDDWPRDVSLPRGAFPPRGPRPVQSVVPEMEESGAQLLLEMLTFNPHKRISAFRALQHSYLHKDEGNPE
Chain of Cyclin-dependent kinase 4/cyclin D1 (P24385 whole entry, further chain): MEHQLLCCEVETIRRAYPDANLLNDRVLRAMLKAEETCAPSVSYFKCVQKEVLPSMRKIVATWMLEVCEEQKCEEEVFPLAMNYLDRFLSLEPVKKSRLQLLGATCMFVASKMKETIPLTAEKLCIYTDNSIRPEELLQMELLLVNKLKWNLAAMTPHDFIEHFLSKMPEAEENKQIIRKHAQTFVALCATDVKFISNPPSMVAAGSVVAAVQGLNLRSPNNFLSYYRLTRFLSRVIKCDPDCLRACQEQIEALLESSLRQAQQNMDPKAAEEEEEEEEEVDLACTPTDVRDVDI

OVCAR-3 [11] = test: Induction of apoptosis in human OVCAR-3 cells assessed as necrotic cells at 2 uM incubated for 24 hrs by Annexin V-FITC/PI staining based flow cytometry analysis (reference value: 0.87%); type: functional
OVCAR-3 [12] = test: Upregulation of Bcl2l1gene expression in human OVCAR-3 cells by GSEA; type: functional, cell-based
[13] = Antiproliferative activity against Palbociclib-resistance human MCF7 cells assessed as cell growth inhibition; type: functional, cell-based, Palbociclib-resistant MCF7 cell
[14] = AUC (0 to infinity) in Sprague-Dawley rat at 2 mg/kg, iv by LC-MS/MS analysis; type: ADME, organism-based; settings: in vivo
OVCAR-3 [15] = test: Induction of cell cycle arrest in human OVCAR-3 cells assessed as accumulation of cells at G2 phase at 2 uM incubated for 24 hrs by flow cytometry analysis (reference value: 21.77%); type: functional
OVCAR-3 [16] = test: Induction of apoptosis in human OVCAR-3 cells assessed as late apoptotic cells at 1 uM incubated for 24 hrs by Annexin V-FITC/PI staining based flow cytometry analysis (reference value: 2.67%); type: functional
[17] = target: Cyclin-dependent kinase 2/cyclin E1 (Homo sapiens, UniProt P24941); test: Inhibition of CDK2/Cyclin E1 (unknown origin) pre-incubated for 10 mins followed by ATP/substrate addition and measured after 60 mins by ADP-Glo assay; type: protein-complex assay
OVCAR-3 [18] = test: Induction of cell cycle arrest in human OVCAR-3 cells assessed as inhibition of RB phosphorylation level incubated for 24 hrs by Western blot analysis; type: functional, cell-based
OVCAR-3 [19] = test: Induction of cell cycle arrest in human OVCAR-3 cells assessed as accumulation of cells at G1 phase at 1 uM incubated for 24 hrs by flow cytometry analysis (reference value: 67.73%); type: functional
[20] = Acute toxicity in ICR mouse assessed as pathological changes in heart at 1000 to 2500 mg/kg, po administered once for 14 days by H and E staining analysis; type: organism-based; settings: in vivo, 336 h, dose 1000-2500 mg/kg, time 14 day
[21] = Tmax in Sprague-Dawley rat at 20 mg/kg, po by LC-MS/MS analysis; type: ADME, organism-based; settings: in vivo
OVCAR-3 [22] = test: Induction of cell cycle arrest in human OVCAR-3 cells assessed as accumulation of cells at G1 phase at 2 uM incubated for 24 hrs by flow cytometry analysis (reference value: 67.73%); type: functional
OVCAR-3 [23] = test: Induction of apoptosis in human OVCAR-3 cells assessed as reduction in Bcl2 expression incubated for 24 hrs by Western blot analysis; type: functional, cell-based
[24] = Acute toxicity in ICR mouse assessed as pathological changes in lung at 1000 to 2500 mg/kg, po administered once for 14 days by H and E staining analysis; type: organism-based; settings: in vivo, 336 h, dose 1000-2500 mg/kg, time 14 day
[25] = C0 in Sprague-Dawley rat at 2 mg/kg, iv by LC-MS/MS analysis; type: ADME, organism-based; settings: in vivo
OVCAR-3 [26] = test: Upregulation of JUN gene expression in human OVCAR-3 cells by GSEA; type: functional, cell-based
OVCAR-3 [27] = test: Antitumor activity against human OVCAR-3 cells xenografted in nude BALB/c mouse model assessed as tumor growth inhibition administered as po once daily for 21 days; type: functional, organism-based; settings: dose 40-80 mg/kg, time 21.0 day
OVCAR-3 [28] = test: Inhibition of colony formation in CCNE1-amplified human OVCAR-3 incubated for 2 weeks by crystal violet staining based inverted microscopic analysis; type: functional, cell-based; settings: dose 1-4 µM
OVCAR-3 [29] = test: Upregulation of apoptosis-related signaling pathway gene expression in human OVCAR-3 cells by GSEA; type: functional, cell-based
OVCAR-3 [30] = test: Induction of apoptosis in human OVCAR-3 cells assessed as early apoptotic cells at 2 uM incubated for 24 hrs by Annexin V-FITC/PI staining based flow cytometry analysis (reference value: 1.25%); type: functional
OVCAR-3 [31] = test: Induction of cell senescence in human OVCAR-3 cells assessed as increase in beta galactosidase activity incubated for 24 hrs by staining based inverted microscopic analysis; type: functional; settings: dose 1-2 µM
OVCAR-3 [32] = test: Induction of apoptosis in human OVCAR-3 cells assessed as early apoptotic cells at 1 uM incubated for 24 hrs by Annexin V-FITC/PI staining based flow cytometry analysis (reference value: 1.25%); type: functional
MCF7 = test: Antiproliferative activity against wild type human MCF7 cells assessed as cell growth inhibition; type: functional, cell-based
[33] = Clearance in Sprague-Dawley rat at 20 mg/kg, po by LC-MS/MS analysis; type: ADME, organism-based; settings: in vivo
[34] = MRT (0 to infinity) in Sprague-Dawley rat at 20 mg/kg, po by LC-MS/MS analysis; type: ADME, organism-based; settings: in vivo
[35] = Acute toxicity in ICR mouse assessed as effect on spleen weight at 1000 to 2500 mg/kg, po administered once for 14 days; type: organism-based; settings: in vivo, 336 h, dose 1000-2500 mg/kg, time 14 day
OVCAR-3 [36] = test: Induction of cell cycle arrest in human OVCAR-3 cells assessed as accumulation of cells at G2 phase at 1 uM incubated for 24 hrs by flow cytometry analysis (reference value: 21.77%); type: functional
OVCAR-3 [37] = test: Antitumor activity against human OVCAR-3 cells xenografted in nude BALB/c mouse assessed as reduction in tumor cells at 40 to 80 mg/kg, po administered once daily for 21 days by H and E staining analysis; type: functional, organism-based; settings: dose 40-80 mg/kg, time 21.0 day
[38] = Acute toxicity in ICR mouse assessed as animal death at 1000 to 2500 mg/kg, po administered once for 14 days; type: organism-based; settings: in vivo, 336 h, dose 1000-2500 mg/kg, time 14 day

CCC(C)n1cc(-c2nc(NC3CCN(S(=O)(=O)C4CC4)CC3)ncc2F)cc(F)c1=O (stereo not given)
half-life [1]: 55.8 min
Activity [2]: Non-toxic
MRT inf [3]: 49.2 min
Activity (OVCAR-3 [4]): 5.01%
Activity (OVCAR-3 [5]): Active
Activity (OVCAR-3 [6]): Dose-dependent-effect
Activity (OVCAR-3 [7]): Active
AUC(0-inf) [8]: 11800 ng·h/mL
viability at 1 µM (OVCAR-3 [9]): 84.6%
IC50 (CDK1/Cyclin A): 15 nM
IC50 [10]: 103 nM
Activity (OVCAR-3 [11]): 3.74%
Activity (OVCAR-3 [12]): Active
IC50 [13]: 954 nM
AUC(0-inf) [14]: 1480 ng·h/mL
Activity (OVCAR-3 [15]): 2.09%
Activity (OVCAR-3 [16]): 7.72%
IC50 [17]: 0.9 nM
Activity (OVCAR-3 [18]): Active
Activity (OVCAR-3 [19]): 94.69%
Activity [20]: Non-toxic
Tmax [21]: 30 min
Activity (OVCAR-3 [22]): 96.27%
Activity (OVCAR-3 [23]): Dose-dependent-effect
Activity [24]: Non-toxic
C0 [25]: 1670 ng/mL
Activity (OVCAR-3 [26]): Active
Activity (OVCAR-3 [27]): Dose-dependent-effect
inhibition (OVCAR-3 [28]): Dose-dependent-effect
Activity (OVCAR-3 [29]): Active
Activity (OVCAR-3 [30]): 3.81%
Activity (OVCAR-3 [31]): Dose-dependent-effect
Activity (OVCAR-3 [32]): 2.65%
IC50 (MCF7): 186 nM
CL/F [33]: 29.2 mL/min/kg
MRT inf [34]: 402 min
Activity [35]: Non-toxic
Activity (OVCAR-3 [36]): 4.3%
Activity (OVCAR-3 [37]): Active
Activity [38]: Non-toxic
